Laboratory results: patent publication US9975876B2, “2-pyridyloxy-3-ester-4-ether orexin receptor antagonists” (MERCK SHARP & DOHME CORP., priority 2013, dated 2018)
pIC50: −log10 of the molar value.

Key:
[1] = molecular target: human orexin-2 receptor (Homo sapiens (Human), UniProt O43614); assay: FLIPR Ca2+ flux assay, orexin-2 receptor antagonism; type: cell-based; settings: CHO cells; agonist 70 pM Ala-6,12 human orexin-A; read-out: hOX2R FLIPR IC50
Method: In a typical experiment the OX1 and OX2 receptor antagonistic activity of the compounds of the present invention was determined in accordance with the following experimental method. For intracellular calcium measurements, Chinese hamster ovary (CHO) cells expressing the rat orexin-1 receptor or the human orexin-2 receptor, are grown in Iscove's modified DMEM containing 2 mM L-glutamine, […], 1% hypoxanthine-thymidine supplement, 100 U/ml penicillin, 100 μg/ml streptomycin and 10% heat-inactivated fetal calf serum (FCS). The cells are seeded at 20,000 cells/well into Becton-Dickinson black 384-well clear bottom sterile plates coated with poly-D-lysine. All reagents were from GIBCO-Invitrogen Corp. The seeded plates are incubated overnight at 37° C. and 5% CO2. Ala-6,12 human orexin-A as the agonist is prepared as a 1 mM stock solution in 1% bovine serum albumin (BSA) and diluted in assay buffer (HBSS containing 20 mM HEPES, 0.1% BSA and 2.5 mM probenecid, pH7.4) for use in the assay at a final concentration of 70 pM. Test compounds are prepared as 10 mM stock solution in DMSO, then diluted in 384-well plates, first in DMSO, then assay buffer. On the day of the assay, cells are washed 3 times with 100 μl assay buffer and then incubated for 60 min (37° C., 5% CO2) in 60 μl assay buffer containing 1 μM Fluo-4AM ester, 0.02% pluronic acid, and 1% BSA. The dye loading solution is then aspirated and cells are washed 3 times with 100 μl assay buffer. 30 μl of that same buffer is left in each well. Within the Fluorescent Imaging Plate Reader (FLIPR, Molecular Devices), test compounds are added to the plate in a volume of 25 μl, incubated for 5 min and finally 25 μl of agonist is added. Fluorescence is measured for each well at 1 second intervals for 5 minutes and the height of each fluorescence peak is compared to the height of the fluorescence peak induced by 70 pM Ala-6,12 orexin-A with buffer in place of antagonist. […] The intrinsic orexin receptor antagonist activity of a compound which may be used in the present invention may be determined by these assays.

[2] = molecular target: hOX1R (Homo sapiens, UniProt O43613); assay: FLIPR Ca2+ flux assay, orexin-1 receptor antagonism; type: cell-based; settings: CHO cells; agonist 70 pM Ala-6,12 human orexin-A

Sequence of human orexin-2 receptor (O43614 whole entry): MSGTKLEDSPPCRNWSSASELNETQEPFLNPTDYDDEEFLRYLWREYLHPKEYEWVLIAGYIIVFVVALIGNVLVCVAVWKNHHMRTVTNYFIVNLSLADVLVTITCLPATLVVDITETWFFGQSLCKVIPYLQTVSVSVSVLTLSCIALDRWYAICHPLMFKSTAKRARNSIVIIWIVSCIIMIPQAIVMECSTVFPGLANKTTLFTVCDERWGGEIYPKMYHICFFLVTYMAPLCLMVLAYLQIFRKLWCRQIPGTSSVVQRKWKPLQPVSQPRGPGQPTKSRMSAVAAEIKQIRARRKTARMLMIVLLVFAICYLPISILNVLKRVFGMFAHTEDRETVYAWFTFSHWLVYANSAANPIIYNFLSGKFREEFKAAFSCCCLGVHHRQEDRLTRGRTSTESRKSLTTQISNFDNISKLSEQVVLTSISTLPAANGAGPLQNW

SMILES | pIC50 [1] | pIC50 [2]
COC(=O)c1c(OC)cccc1O[C@@H]1CC[C@@H](C)N(C(=O)c2ccccc2-n2nccn2)C1 [Example 31, Methyl 2-methoxy-6-{[(3R,6R)-6-methyl-1-{[2-(2H-1,2,3-triazol-2-yl)phenyl]carbonyl}piperidin-3-yl]oxy}benzoate] | 7.60 | < 5.00
COC(=O)c1c(OC)cccc1O[C@@H]1CC[C@@H](C)N(C(=O)c2ccsc2-n2nccn2)C1 [Example 32, methyl 2-methoxy-6-{[(3R,6R)-6-methyl-1-{[2-(2H-1,2,3-triazol-2-yl)thiophen-3-yl]carbonyl}piperidin-3-yl]oxy}benzoate] | 7.21 | < 5.00
COC(=O)c1c(OC)cccc1O[C@@H]1CC[C@@H](C)N(C(=O)c2ccccc2-n2ncnn2)C1 [Example 33, methyl 2-methoxy-6-{[(3R,6R)-6-methyl-1-{[2-(2H-tetrazol-2-yl)phenyl]carbonyl}piperidin-3-yl]oxy}bcnzoate] | 6.69 | < 5.00
COC(=O)c1c(OC)cccc1O[C@@H]1CC[C@@H](C)N(C(=O)c2ccsc2-c2ncccn2)C1 [Example 34, methyl 2-methoxy-6-({(3R,6R)-6-methyl-1-[(2-pyrimidin-2-ylthiophen-3-yl)carbonyl]piperidin-3-yl}oxy)benzoate] | 7.38 | < 5.00
COC(=O)c1c(OC)cccc1O[C@@H]1CC[C@@H](C)N(C(=O)c2ccccc2-c2ncccn2)C1 [Example 35, methyl 2-methoxy-6-({(3R,6R)-6-methyl-1-[(2-pyrimidin-2-ylphenyl)carbonyl]piperidin-3-yl}oxy)benzoate] | 7.46 | < 5.00
